For assay [1], the target named is Syk (2-635) (KSYK_HUMAN, P43405) (Homo sapiens, UniProt P43405). Briefly: Syk enzyme assay (chip based microfluidic mobility shift assay). Format: biochemical. As to conditions: 4 μM ATP, 4 nM Syk, 60 minutes at 30° C. The protocol:
A number of compounds of the present invention were assayed in a chip based microfluidic mobilitiy shift assay. All assays were performed in 384 well microtiter plates. Each assay plate contained 8-point serial dilutions for 40 test compounds, as well as four 8-point serial dilutions of staurosporine as reference compound, plus 16 high- and 16 low controls. Liquid handling and incubation steps were done on a Thermo CatX workstation equipped with a Innovadyne Nanodrop Express. Between pipetting steps, tips were cleaned in wash cycles using wash buffer. The assay plates were prepared by addition of 50 nl per well of compound solution in 90% DMSO. […] Kinase reactions were incubated at 30° C. for 60 minutes and subsequently terminated by addition of 16 μl per well of stop solution (100 mM HEPES pH 7.5, 5% DMSO, 0.1% Caliper coating reagent, 10 mM EDTA, and 0.015% Brij35). Plates with terminated kinase reactions were transferred to the Caliper LC3000 workstations for reading. Phosphorylated and unphosphorylated peptides were separated using the Caliper microfluidic mobility shift technology. Briefly, samples from terminated kinase reactions were applied to the chip. Analytes are transported through the chip by constant buffer flow and the migration of the substrate peptide is monitored by the fluorescence signal of its label. Phosphorylated peptide (product) and unphosphorylated peptide (substrate) are separated in an electric field by their charge/mass ratio. Kinase activities were calculated from the amounts of formed phospho-peptide. […] values were determined from percent inhibition values at different compound concentrations by non-linear regression analysis.
Test compounds were dissolved in DMSO (10 mM) and transferred into 1.4 mL flat bottom or V-shaped Matrix tubes carrying a unique 2D matrix. The stock solutions were stored at […] if not used immediately. For the test procedure the vials were defrosted and identified by a scanner whereby a working sheet was generated that guided the subsequent working steps.
Compound dilutions were made in 96 well plates. This format enabled the assay of maximally 40 individual test compounds at 8 concentrations (single points) including 4 reference compounds. The dilution protocol included the production of “pre-dilution plates”, “master plates” and “assay plates”.
96 polypropylene well plates were used as pre-dilution plates. A total of 4 pre-dilution plates were prepared including 10 test compounds each on the plate positions A1-A10, one standard compound at A11 and one DMSO control at A12. All dilution steps were done on a HamiltonSTAR robot.
30 μL of individual compound dilutions including standard compound and controls of the 4 “pre-dilution plates” were transferred into a 384 “master plate” including the following concentrations 1′810, 362, 72.5, […], 14.5, 2.9, 0.58 and 0.12 μM, respectively in 90% of DMSO.
Identical “assay plates” were then prepared by pipetting […] each of compound dilutions of the “master plates” into 384-well “assay plates” by means of a HummingBird 384-channel dispenser. These plates were used directly for the assay which was performed in a total volume of 9.05 μL. This led to a final compound concentration of 10, 2.0, 0.4, 0.08, 0.016, 0.0032, 0.00064 and 0.000128 μM and a final DMSO concentration of 0.5% in the assay.

The test system of another assay is TMD-8 cells. In words: cells. As to conditions: Homo sapiens, TMD8, 96 h.
Assay [2] deals with SLP-76 phosphorylation in human whole blood monocytes. In words: FcR stimulation-induced SLP-76 phosphorylation in human whole blood monocytes. It is filed as cell-based. To be noted: Monocyte, 5 min, anti CD32 stimulation 5 min, flow cytometry, read-out: Fc Recepor stimulation induced SLP-76 phosphorylation in human whole blood monocytes, IC50. An excerpt:
After lysis of erythrocytes and washings, the cell pellet was permeabilized with ice-cold methanol 90%. The permeabilized cells were washed and stained with anti CD14 (eBioscience) to detect monocytes and anti P-SLP76 ([…]) (BD Biosciences) and quantified by flow cytometry.
Background: Flow cytometry measures light scatter and fluorescence of single cells or particles in a stream.

In a further assay the test system is OCI-Ly10 cells. In words: B-cell lymphoma cell proliferation (WST-1 assay), OCI-Ly10. Format: cell-based. To be noted: Homo sapiens, 72 h; OCI-Ly10, 3 days of incubation. The protocol:
Cell proliferation was determined using the WST-1 assay (Roche, Mannheim, Germany), which measures the metabolic activity of the cells. Briefly, 5×10^5 TMD-8, OCI-Ly3, and OCI-Ly10 cells/well and 10×10^5 HBL-1 cells/well were seeded in triplicate in 96-well plates and were incubated with various concentrations of compounds to be tested for 3 days. The cell proliferation reagent WST-1 (10 μl/well) was added to the cells for 1-2 hours depending on the cell type which were cultured in 200 μl of medium. The absorbance was then measured with an enzyme-linked immunosorbent assay plate reader at a wavelength of 450 nm.
For orientation: Tetrazolium assays rely on reduction of a dye to a coloured formazan, in cell work by metabolically active cells.

In the next assay the test system is HBL-1 cells. Briefly: cells. As to conditions: HBL1, 96 h.

Our source for the IC50 and GI50 values is patent US20130310387A1, “Monocyclic Heteroaryl Cycloalkyldiamine Derivatives” (NOVARTIS AG, priority 2012, published 2013).

For the compound `NC(=O)c1nnc(N[C@@H]2CCCC[C@@H]2N)nc1Nc1cccc2cc[nH]c12` [Example 1.1, 3-((1R,2S)-2-Amino-cyclohexylamino)-5-(1H-indol-7-ylamino)-[1,2,4]triazine-6-carboxylic acid amide], the values for the concentration for half-maximal inhibition (IC50) in assay [1] and in assay [2] were 0.023 µM and 0.378 µM, respectively. For the same compound, the 50% growth inhibitory concentration (GI50) in the assay with TMD-8 cells was 0.281 µM; in the assay with OCI-Ly10 cells, 0.025 µM; with HBL-1 cells, 0.105 µM.

By IC50 is commonly meant the concentration that gives 50% inhibition. For orientation: GI50 means the concentration giving 50% growth inhibition. A lower GI50 goes with more potent growth inhibition.
